{
  "source": "paper PMC6213047",
  "about": "“Design of Antibacterial Agents: Alkyl Dihydroxybenzoates against Xanthomonas citri subsp. citri” (International Journal of Molecular Sciences, 2018)",
  "key": {"[1]": {"system": "Xcc cells membrane integrity", "assay": "Cellular membrane permeability of Xcc, Live/Dead BacLight kit", "format": "cell-based, Xanthomonas citri subsp. citri", "settings": "compounds at ¼ MIC, 15 min; nisin as positive control", "description": "Membrane integrity was measured by using the commercial assay Live/Dead BacLight® bacterial viability kit (Invitrogen, Carlsbad, CA, USA). We observed cells with intact membrane in fluorescent blue (SYTO 9) and cells with disturbance or affected membrane integrity in red or pink (propidium iodide). The data analyses were plotted as the percentage of cells permeated by propidium iodide (Figure 2).\nPhase contrast microscopy was used to observe changes in cell shape and signs of cell division alteration using an objective lens with a magnification of 100×. To evaluate the Xcc cells’ membrane integrity, the BacLight® kit was used. Mixtures of SYTO 9 dyes and propidium iodide (PI). SYTO 9 (blue) can stain nucleic acids in general—with intact or damaged membranes. On the other hand, PI (red) penetrates only the bacteria with damaged membranes, causing overlap in the fluorescence of SYTO 9. Therefore, using a mixture of the dyes, the bacteria with disturbed cell membranes are stained in fluorescent red and the intact cell membranes are stained in fluorescent blue. […] Cellular immobilization was performed on slides containing 1% agarose gel in 0.85% saline buffer. The slides were prepared with 1.0 mL of the agarose solution, which was dispersed in optical microscopy slides and on each slide another slide was placed so that the gel continued like a thin film and was of homogeneous height. The slides were dried at room temperature for approximately 20 min and opened at the time of use, when 10 μL of the cell suspension was deposited in the center and covered with the cover slip. The cells were visualized using the Olympus BX-61 optical microscope equipped with OrcaFlash 2.8 monochrome camera (Hamamatsu, Shizuoka, Japan). Cell Sensation software v11 (Olympus) was used to document and analyze the images."}, "[2]": {"system": "X. citri subsp. citri strain 306 (IBSBF 1594)", "assay": "MIC by Resazurin Microtiter Assay (REMA)", "format": "cell-based, Xanthomonas citri subsp. citri", "settings": "Xanthomonas citri, 12 h, REMA, NYG medium, 29 °C", "description": "The antibacterial potential of carboxylic acids and their esters were compared to copper oxychloride (a commercial active often used to combat citrus canker). Minimal inhibitory concentration (MIC) values were determined by REMA assay, which measures cellular respiratory activity.\nThe antibacterial activity of alkyl dihydroxybenzoates and the determination of minimum inhibition concentration (MIC) were performed by the fluorimetric method Resazurin Microtiter Assay (REMA) with some modifications. An overnight culture of X. citri subsp. citri strain 306 (IBSBF 1594) was grown in 20 mL in Nitrogen Yeast Glycerol (NYG) at 29 °C in constant agitation of 180–200 rpm. After 12 h, the Xcc inoculum was dispersed in NYG medium and distributed into a 96 well microtiter plate to a final volume of 100 μL per well (10^5 CFU per well). Stock solutions of tested compounds at 10 mg mL^−1 were prepared in dimethyl sulfoxide (DMSO) and dispersed in NYG medium to obtain 1% DMSO and the final compound concentration range of 0.78–100 μg mL^−1. The negative control was constituted of 100 μL culture medium. In addition, the copper oxychloride was tested as a comparison to alkyl dihydroxybenzoates and kanamycin (20 μg mL^−1), which was used as a control antibiotic. The plate was subsequently incubated at 29 °C for 12 h, and 15 μg mL^−1 freshly prepared resazurin solution in water was added to each well, and the plate was incubated for 2 h. The fluorescence was determined on a Synergy H1 (BioTek, Winooski, VT, USA) microplate reader using the excitation and emission filters at wavelengths of 530 and 590 nm respectively. After the REMA assay, the minimum bactericidal concentration (CBM) assay was performed using a 96-pin stainless steel plate replicator, accurately transferring the wells from the REMA plate to Petri dishes Petri dishes were incubated in oven B.O.D. at 29 °C for 24 to 48 h. The experiments were performed in triplicate."}, "[3]": {"system": "Huh-7.5 (human hepatoma cell line)", "assay": "Cytotoxicity MTT assay, Huh-7.5", "format": "cell-based", "description": "(§1) This test is based on the reduction of 3-(4,5-dimethyl-2-thiazolyl)-2,5-diphenyl-2-tetrazole bromide by viable cells, with formation of violet insoluble formazan crystals. Five cell lines were used in order to evaluate the cytotoxic effect of the compounds as a whole.\n(§2) The cytotoxicity of compounds 4, 16, 28 and copper oxychloride was determined by MTT assay. The cell lines used were HaCaT (human keratinocyte cell line—CLS 300493), Huh-7.5 (human hepatoma cell line—ATCC® PTA-8561), MRC-5 (human lung fibroblast cell line—ATCC CCL-171), VERO (monkey kidney epithelial cell line—ATCC® CCL81) and ACHN (human renal adenocarcinoma cell line—ATCC® CRL1611). The cells were cultured in appropriate medium recommended by the American Type Culture Collection.\n(§3) The assay was performed with the concentration of 10^4 cells for both cell lines, distributed in 96-well plates and incubated at 37 °C in a 5% CO2 controlled atmosphere oven for 24 h. After the incubation period, the cells were treated with the compounds with a range of 1.56–200 μmol L^−1 and incubated for 24 h. The supernatant was removed, then 100 μL of 3-(4,5-dimethyl-2-thiazolyl)-2,5-diphenyl-2H-tetrazolium (MTT) salt at 1 mg mL^−1 diluted in DMEM medium (Gibco Life Technologies, Gaithersburg, MD, USA) was added and incubated for 30 min. Subsequently, the MTT was removed, then 100 μL of DMSO under agitation for 5 min at 60 rpm was added. The plates were read at 570 nm in a FLUOstar Omega/BMG LABTECH plate reader, Offenburg, BW, DE. We carried out the experiments in triplicate and three independent events for statistical analysis (GraphPad Software, San Diego, CA, USA). The MTT assay is based on the tetrazolium salt (yellow-colored) reduction to formazan (purple-colored) by metabolically active cells."}, "[4]": {"system": "VERO (monkey kidney epithelial cell line)", "assay": "Cytotoxicity MTT assay, VERO", "format": "cell-based", "description": "as §1, §2, §3"}, "[5]": {"system": "HaCaT (human keratinocyte cell line)", "assay": "Cytotoxicity MTT assay, HaCaT", "format": "cell-based", "description": "as §1, §2, §3"}, "[6]": {"settings": "Homo sapiens, Huh7.5, 24 h, read-out: IC50 Huh-7,5, MTT, 24 h treatment"}, "[7]": {"settings": "MTT, 24 h treatment, read-out: IC50 Huh-7,5"}, "[8]": {"settings": "Homo sapiens, HaCaT, 24 h, read-out: IC50 HaCaT, MTT, 24 h treatment"}, "[9]": {"settings": "MTT, 24 h treatment, read-out: IC50 HaCaT"}, "[10]": {"settings": "Primates, Vero, 24 h, MTT, 24 h treatment, read-out: IC50 VERO"}},
  "note": "Where two headings read alike, the source gives them in different places.",
  "data": [
    {"smiles": "CCCCCCCOC(=O)c1ccc(O)cc1O", "note": "[Compound 4]", "values": [
      {"measurement": "percentage of cells permeated by propidium iodide", "setting": "[1]", "result": 13.9, "unit": "%"},
      {"measurement": "MIC", "setting": "[2]; read-out: MIC in μM", "result": 52, "unit": "µM"},
      {"measurement": "IC50", "setting": "[3]; [6]", "result": "~70", "unit": "µM"},
      {"measurement": "IC50", "setting": "[3]; [7]", "result": "70.6 ± 5.52", "unit": "µM"},
      {"measurement": "IC50", "setting": "[4]; MTT, 24 h treatment, read-out: IC50 VERO", "result": "111 ± 8.34", "unit": "µM"},
      {"measurement": "IC50", "setting": "[4]; Primates, Vero, 24 h, read-out: IC50 VERO, MTT, 24 h treatment", "result": "> 100", "unit": "µM"},
      {"measurement": "IC50", "setting": "[5]; [8]", "result": "~70", "unit": "µM"},
      {"measurement": "IC50", "setting": "[5]; [9]", "result": "64.9 ± 8.91", "unit": "µM"}
    ]},
    {"smiles": "CCCCCCCOC(=O)c1cc(O)ccc1O", "note": "[Compound 16]", "values": [
      {"measurement": "percentage of cells permeated by propidium iodide", "setting": "[1]", "result": 41.3, "unit": "%"},
      {"measurement": "MIC", "setting": "[2]; read-out: MIC in μM", "result": 80, "unit": "µM"},
      {"measurement": "IC50", "setting": "[3]; Homo sapiens, Huh7.5, 24 h, MTT, 24 h treatment, read-out: IC50 Huh-7,5", "result": "20.6 ± 0.23", "unit": "µM"},
      {"measurement": "IC50", "setting": "[4]; [10]", "result": "93.5 ± 1.93", "unit": "µM"},
      {"measurement": "IC50", "setting": "[5]; [8]", "result": "~70", "unit": "µM"},
      {"measurement": "IC50", "setting": "[5]; [9]", "result": "69.8 ± 4.87", "unit": "µM"}
    ]},
    {"smiles": "CCCCCCCOC(=O)c1ccc(O)c(O)c1", "note": "[Compound 28]", "values": [
      {"measurement": "percentage of cells permeated by propidium iodide", "setting": "[1]", "result": 93.8, "unit": "%"},
      {"measurement": "MIC", "setting": "[2]; read-out: MIC", "result": 22.2, "unit": "µg/mL"},
      {"measurement": "MIC", "setting": "[2]; read-out: MIC in μM", "result": 88, "unit": "µM"},
      {"measurement": "IC50", "setting": "[3]; [6]", "result": "~70", "unit": "µM"},
      {"measurement": "IC50", "setting": "[3]; [7]", "result": "64.8 ± 14.9", "unit": "µM"},
      {"measurement": "IC50", "setting": "[4]; [10]", "result": "92.3 ± 9.34", "unit": "µM"},
      {"measurement": "IC50", "setting": "[5]; [8]", "result": "~70", "unit": "µM"},
      {"measurement": "IC50", "setting": "[5]; [9]", "result": "74 ± 11.7", "unit": "µM"}
    ]}
  ]
}
